Biological target: Cell division control protein 42 homolog (Homo sapiens, UniProt P60953)
Test: wild-type Cdc42 GTP-binding inhibitors, SAR follow-up, biochemical, bead-based multiplex flow cytometry, additional SAR set (AID 2022)

Chain of Cell division control protein 42 homolog (P60953 whole entry): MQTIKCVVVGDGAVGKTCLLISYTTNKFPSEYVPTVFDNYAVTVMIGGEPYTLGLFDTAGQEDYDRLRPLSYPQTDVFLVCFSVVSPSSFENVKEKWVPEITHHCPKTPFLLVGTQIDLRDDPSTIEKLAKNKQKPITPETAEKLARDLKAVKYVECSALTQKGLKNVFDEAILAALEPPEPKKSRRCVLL

Compound	Ki
O=C1N=c2c(F)cccc2=C1c1[nH]c2ccccc2c1NO [7-fluoro-3-[3-(hydroxyamino)-1H-indol-2-yl]-2-indolone]	5930 nM
O=C1Nc2c(Cl)cccc2C1=C1Nc2ccccc2C1=O	10 nM
